We go through 17 compounds from patent US11753407B2, “Compounds for treating spinal muscular atrophy” (PTC Therapeutics, Inc., priority 2012, dated 2023).

For series [1], the system named is Smn protein in SMA patient fibroblast cells (GM03813). The series can be described thus: Smn protein assay in cultured cells (SMN HTRF). The format is cell-based, human. The conditions noted are these: SMA patient fibroblast cells, 48 hours; for EC1.5x for Smn protein expression: 7-point concentration curve, SMN HTRF, concentration producing 1.5 times Smn protein vs DMSO vehicle control; for maximum fold (Fold) increase of Smn protein: 7-point concentration data, fold relative to vehicle control. The procedure, abridged:
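SMA patient fibroblasts (5,000/well, DMEM-10% FBS) treated 48 h at 37° C with 7-point, 3.16-fold compound series in triplicate; lysates read by SMN HTRF (665/620 nm ratio). Fold Smn increase over DMSO vehicle derived; EC1.5× is concentration giving 1.5-fold Smn, with maximum fold also reported.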

The subject of series [2] is SMN2 minigene mRNA (SMN2-A minigene) in HEK293H cells. Briefly: SMN2 minigene mRNA splicing RT-qPCR assay in cultured cells. Particulars: Homo sapiens, HEK293-H; concentration increasing full length SMN2 mRNA 1.5-fold relative to vehicle-treated cells; HEK293H cells with SMN2-A minigene, 24 hours, 7-point concentration data; read-out: EC1.5x for production of full length SMN2 mRNA. The format is cell-based, human. The procedure, abridged: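 HEK293H cells stably carrying SMN2-A minigene treated with compounds (7-point, 3.16-fold dilutions, duplicates) for 24 h at 37 °C. Full-length exon 7-containing minigene mRNA measured by multiplex RT-qPCR with GAPDH, normalized and expressed relative to vehicle (modified ΔΔCt); EC1.5× is concentration giving 1.5-fold increase.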
In general terms: In qPCR the cycle at which signal appears reflects the starting amount.

For orientation: melting point means the temperature of the solid-liquid transition.

Consider `CN[C@H]1CC[C@@H](c2ccc3nc(-c4ccc(OC)c(OC)c4)cc(=O)n3c2)CC1` [Compound 405, 2-(3,4-dimethoxyphenyl)-7-[cis-4-(methylamino)cyclohexyl]-4H-pyrido[1,2-a]pyrimidin-4-one], for which the melting point is 156 to 158 °C. In series [1], the “EC1.5x for Smn protein expression” value is “*** (an EC1.5× between >0.3 μM and ≤1 μM is indicated by three stars (***))”; the “maximum fold (Fold) increase of Smn protein” value (“maximum fold (Fold) increase” below) is “**** (a fold increase between >1.5 and ≤1.65 is indicated by four stars (****))”. The EC (1.5-fold increase) in series [2] fell in the range of 0.1 to 0.3 µM.

`COc1ccc(-c2cc(=O)n3cc(C4CCCNC4)ccc3n2)cc1OC` (stereo not drawn) [Compound 406, 2-(3,4-dimethoxyphenyl)-7-(piperidin-3-yl)-4H-pyrido[1,2-a]pyrimidin-4-one]: the melting point fell in the range of 126 to 129 °C. For the same compound, in series [1], the “EC1.5x for Smn protein expression” value is “* (An EC1.5× for Smn protein expression between >3 μM and ≤10 μM is indicated by one star (*))”; the “maximum fold (Fold) increase” value is “*** (a fold increase between >1.35 and ≤1.5 is indicated by three stars (***))”. Besides, in series [2], the EC (1.5-fold increase) is 0.3 to 1 µM.

Compound `CCc1cc(C2=CCNCC2)cn2c(=O)cc(-c3ccc(OC)c(OC)c3)nc12` [Compound 408, 2-(3,4-dimethoxyphenyl)-9-ethyl-7-(1,2,3,6-tetrahydropyridin-4-yl)-4H-pyrido[1,2-a]pyrimidin-4-one] gave a melting point of 171 to 177 °C. Also, the “maximum fold (Fold) increase” value in series [1] is “** (a fold increase between >1.2 and ≤1.35 is indicated by two stars (**))”. Moreover, in series [2], the EC (1.5-fold increase) was less than 0.1 µM.

Turning to `Cc1cn2cc(-c3ccc4nc(C5CCNCC5)cc(=O)n4c3)ccc2n1` [Compound 409, 7-(2-methylimidazo[1,2-a]pyridin-6-yl)-2-(piperidin-4-yl)-4H-pyrido[1,2-a]pyrimidin-4-one], the melting point was 255 to 258 °C. In series [1], the “EC1.5x for Smn protein expression” value was “**** (an EC1.5x≤0.3 μM is indicated by four stars (****))” and the “maximum fold (Fold) increase” value is given as “***** (a fold increase >1.65 is indicated by five stars (*****))”. In addition, in series [2], the EC (1.5-fold increase) was less than 0.1 µM.

The compound `Cc1cn2cc(-c3ccc4nc(C5CCNCC5)cc(=O)n4c3)cc(F)c2n1` [Compound 410, 7-(8-fluoro-2-methylimidazo[1,2-a]pyridin-6-yl)-2-(piperidin-4-yl)-4H-pyrido[1,2-a]pyrimidin-4-one] showed a melting point of 295 to 298 °C. Also, in series [1], the “EC1.5x for Smn protein expression” value was “**** (an EC1.5x≤0.3 μM is indicated by four stars (****))” and the “maximum fold (Fold) increase” value is “***** (a fold increase >1.65 is indicated by five stars (*****))”. Moreover, the EC (1.5-fold increase) in series [2] is less than 0.1 µM.

`Cc1cn2cc(-c3ccc4nc(C5=CCN(C)CC5)cc(=O)n4c3)cc(F)c2n1` [Compound 411, 7-(8-fluoro-2-methylimidazo[1,2-a]pyridin-6-yl)-2-(1-methyl-1,2,3,6-tetrahydropyridin-4-yl)-4H-pyrido[1,2-a]pyrimidin-4-one] came in with a melting point of 218 to 222 °C. The “maximum fold (Fold) increase” value in series [1] is “*** (a fold increase between >1.35 and ≤1.5 is indicated by three stars (***))”. Besides, the EC (1.5-fold increase) in series [2] was less than 0.1 µM.

In turn, `Cc1cn2cc(-c3cc(=O)n4cc(N5CCN(C6CC6)CC5)ccc4n3)cc(F)c2n1` [Compound 412, 7-(4-cyclopropylpiperazin-1-yl)-2-(8-fluoro-2-methylimidazo[1,2-a]pyridin-6-yl)-4H-pyrido[1,2-a]pyrimidin-4-one] had a melting point of 254 to 258 °C. In series [1], the “EC1.5x for Smn protein expression” value was “**** (an EC1.5x≤0.3 μM is indicated by four stars (****))” and the “maximum fold (Fold) increase” value is recorded as “***** (a fold increase >1.65 is indicated by five stars (*****))”. In addition, the EC (1.5-fold increase) in series [2] is less than 0.1 µM.

The compound `Cc1cn2cc(-c3cc(=O)n4cc(C5=CCNCC5)ncc4n3)cc2c(C)n1.Cl.Cl` [Compound 413, 2-(1,3-dimethylpyrrolo[1,2-a]pyrazin-7-yl)-7-(1,2,3,6-tetrahydropyridin-4-yl)-4H-pyrazino[1,2-a]pyrimidin-4-one hydrochloride (1:2)] came in with a melting point of more than 300 °C. In series [1], the “EC1.5x for Smn protein expression” value was “**** (an EC1.5x≤0.3 μM is indicated by four stars (****))”; the “maximum fold (Fold) increase” value was “**** (a fold increase between >1.5 and ≤1.65 is indicated by four stars (****))”. Also, the EC (1.5-fold increase) in series [2] was less than 0.1 µM.

Compound `CCc1cc(C2=CCN(C)CC2)cn2c(=O)cc(-c3ccc(OC)c(OC)c3)nc12` [Compound 415, 2-(3,4-dimethoxyphenyl)-9-ethyl-7-(1-methyl-1,2,3,6-tetrahydropyridin-4-yl)-4H-pyrido[1,2-a]pyrimidin-4-one] displayed a melting point of 177 to 182 °C. Further, the “maximum fold (Fold) increase” value in series [1] is “*** (a fold increase between >1.35 and ≤1.5 is indicated by three stars (***))”. In addition, the EC (1.5-fold increase) in series [2] was less than 0.1 µM.

`COc1ccc(-c2cc(=O)n3cc(N4CCC(NC(C)C)CC4)cc(C)c3n2)cc1OC` [Compound 416, 2-(3,4-dimethoxyphenyl)-9-methyl-7-[4-(propan-2-ylamino)piperidin-1-yl]-4H-pyrido[1,2-a]pyrimidin-4-one] registered a melting point of 178 to 183 °C. In series [1], the “EC1.5x for Smn protein expression” value was “** (an EC1.5× between >1 μM and ≤3 μM is indicated by two stars (**))”; the “maximum fold (Fold) increase” value was “*** (a fold increase between >1.35 and ≤1.5 is indicated by three stars (***))”. In addition, the EC (1.5-fold increase) in series [2] was less than 0.1 µM.

`COc1ccc(-c2cc(=O)n3cc(N4CCN5CCC[C@H]5C4)cc(C)c3n2)cc1OC` [Compound 417, 2-(3,4-dimethoxyphenyl)-7-[(8aS)-hexahydropyrrolo[1,2-a]pyrazin-2(1H)-yl]-9-methyl-4H-pyrido[1,2-a]pyrimidin-4-one] yielded a melting point of 183 to 189 °C. In addition, in series [1], the “EC1.5x for Smn protein expression” value is “** (an EC1.5× between >1 μM and ≤3 μM is indicated by two stars (**))”; the “maximum fold (Fold) increase” value is “**** (a fold increase between >1.5 and ≤1.65 is indicated by four stars (****))”. Moreover, the EC (1.5-fold increase) in series [2] was in the range of 0.1 to 0.3 µM.

`CCc1cc(C2=CCN(CC)CC2)cn2c(=O)cc(-c3ccc(OC)c(OC)c3)nc12` [Compound 418, 2-(3,4-dimethoxyphenyl)-9-ethyl-7-(1-ethyl-1,2,3,6-tetrahydropyridin-4-yl)-4H-pyrido[1,2-a]pyrimidin-4-one] registered a melting point of 148 to 153 °C. The “maximum fold (Fold) increase” value in series [1] is “*** (a fold increase between >1.35 and ≤1.5 is indicated by three stars (***))”. Also, the EC (1.5-fold increase) in series [2] was less than 0.1 µM.

`COc1ccc(-c2cc(=O)n3cc(N4CCC(N5CCOCC5)CC4)cc(C)c3n2)cc1OC` [Compound 419, 2-(3,4-dimethoxyphenyl)-9-methyl-7-[4-(morpholin-4-yl)piperidin-1-yl]-4H-pyrido[1,2-a]pyrimidin-4-one]: the melting point was in the range of 219 to 224 °C. Further, the “maximum fold (Fold) increase” value in series [1] is “** (a fold increase between >1.2 and ≤1.35 is indicated by two stars (**))”. Moreover, the EC (1.5-fold increase) in series [2] lay in the range of 0.1 to 0.3 µM.

`Cc1cn2nc(-c3cc(=O)n4cc(N5CCNCC5)ccc4n3)cc2cn1` [Compound 420, 2-(6-methylpyrazolo[1,5-a]pyrazin-2-yl)-7-(piperazin-1-yl)-4H-pyrido[1,2-a]pyrimidin-4-one] showed a melting point of 202 to 204 °C. Further, in series [1], the “EC1.5x for Smn protein expression” value was “**** (an EC1.5x≤0.3 μM is indicated by four stars (****))”; the “maximum fold (Fold) increase” value is “**** (a fold increase between >1.5 and ≤1.65 is indicated by four stars (****))”. In addition, the EC (1.5-fold increase) in series [2] was less than 0.1 µM.

In turn, `Cc1nc2ccc(-c3cc(=O)n4cc(C5=CCN(C)CC5)ncc4n3)cc2o1` [Compound 422, 2-(2-methyl-1,3-benzoxazol-6-yl)-7-(1-methyl-1,2,3,6-tetrahydropyridin-4-yl)-4H-pyrazino[1,2-a]pyrimidin-4-one] had a melting point of 240 to 242 °C. Besides, in series [1], the “EC1.5x for Smn protein expression” value was “** (an EC1.5× between >1 μM and ≤3 μM is indicated by two stars (**))”; the “maximum fold (Fold) increase” value is “*** (a fold increase between >1.35 and ≤1.5 is indicated by three stars (***))”. Moreover, the EC (1.5-fold increase) in series [2] was less than 0.1 µM.

In turn, `CCN1CC=C(c2cn3c(=O)cc(-c4ccc5nc(C)oc5c4)nc3cn2)CC1` [Compound 423, 7-(1-ethyl-1,2,3,6-tetrahydropyridin-4-yl)-2-(2-methyl-1,3-benzoxazol-6-yl)-4H-pyrazino[1,2-a]pyrimidin-4-one] registered a melting point of 225 to 227 °C. For the same compound, in series [1], the “EC1.5x for Smn protein expression” value was “*** (an EC1.5× between >0.3 μM and ≤1 μM is indicated by three stars (***))”; the “maximum fold (Fold) increase” value was “**** (a fold increase between >1.5 and ≤1.65 is indicated by four stars (****))”. Besides, the EC (1.5-fold increase) in series [2] was less than 0.1 µM.

On to `Cc1nc2ccc(-c3cc(=O)n4cc(C5CCNCC5)ccc4n3)cc2s1` [Compound 424, 2-(2-methyl-1,3-benzothiazol-6-yl)-7-(piperidin-4-yl)-4H-pyrido[1,2-a]pyrimidin-4-one], for which the melting point is 222 to 224 °C. In addition, in series [1], the “EC1.5x for Smn protein expression” value is given as “**** (an EC1.5x≤0.3 μM is indicated by four stars (****))” and the “maximum fold (Fold) increase” value is “***** (a fold increase >1.65 is indicated by five stars (*****))”. Also, the EC (1.5-fold increase) in series [2] was less than 0.1 µM.
